Tests used:
Assay type in all cases: physicochemical
[1] = Ozone resistance of printed matter; details: ink containing the dye; printed matter exposed to 3 ppm ozone for 2 hours
Excerpt: (§1) There were mixed together 8 parts by weight of a coloring material-containing emulsion obtained in the above item (2) or a 30% aqueous solution of a dye obtained in any one of Reference Examples 1 to 5, 10 parts by weight of trimethylglycine, 5 parts by weight of urea, 1 part by weight of sodium 2-ethylhexylsulfosuccinate and 76 parts by weight of purified water, to give an ink.
(§2) An inkjet printer cartridge (commercially available from CANON INC. under the trade name of BCI-21e) was charged with an ink, and the inkjet printer cartridge was loaded on a bubble jet printer (commercially available from CANON INC. under the model number of BJC430J). Printing was carried out on plain paper (commercially available from CANON INC. under the trade name of The Plain Paper for Inkjet Printing PB Paper) and on high-resolution coated paper (commercially available from CANON INC. under the trade name of (The High Resolution Coated Paper HR-101), and sufficiently dried. Thereafter, the following physical properties of the printed paper were evaluated. The results are shown in Table 2.
(4) Ozone Resistance
A printed matter on a paper sheet for plain paper copy was exposed in a gas stream having an ozone concentration of 3 ppm for 2 hours, and the color tone (L*a*b*) before and after exposure was determined by using a colorinmeter [commercially available from Nippon Denshoku Kogyo Kabushiki Kaisha under the trade name of SE2000], and indicated by ΔE.

[2] = Water resistance of printed matter (OD residual ratio); details: ink containing the dye; printed matter soaked in purified water at 25° C. for 10 minutes
Excerpt: as §1, §2
(2) Water Resistance
The printed matter on a paper sheet for plain paper copy was soaked in purified water at 25° C. for 10 minutes, and thereafter water was sufficiently removed to be air-dried. The optical density (hereinafter referred to as OD) of the same site before and after soaking was determined by using an optical density analyzer [commercially available from Macbeth Process Measurements Co., umder the trade name of reflection densitometer RD-914]. Its OD residual ratio was obtained in accordance with the following equation: [formula]

[3] = Light fastness of printed matter (OD residual ratio); details: ink containing the dye; printed matter irradiated at 10000 kJ/m^2, xenon fade meter
Excerpt: as §1, §2
(3) Light Fastness
A printed matter of the PB Paper (commercially available from CANON INC.) was irradiated at 10000 kJ/m^2 with a xenon fade meter (commercially available from Suga Shikenki K.K. under the trade name of Low-temperature cycle-xenon-long life-fade meter). The optical density (OD) of the same site before and after irradiation was determined by using the same optical density analyzer as above. Its OD residual ratio was obtained in accordance with the following equation: [formula]

[4] = Storage stability of ink (retention ratio of physical properties); details: ink containing the dye, stored at 60° C. for 3 months; for Retention Ratio of Physical Properties After Storage (%) Surface Tension: surface tension at 25° C.; for Retention Ratio of Physical Properties After Storage (%) Viscosity: viscosity at 25° C.
Procedure: In 10 g of toluene was dissolved 0.6 g of each dye obtained in Preparation Examples 1 to 5 or Reference Example 6 or 7, and 1.4 g of the vinyl polymer solution obtained in the above item (1) was added to the resulting mixed solution, and the mixture was sufficiently stirred to dissolve the dye.
Next, 5.21 g of a 1 N aqueous potassium hydroxide and 50 g of purified water were added to the resulting solution, and the mixture was further sufficiently stirred. After stirring, the mixture was emulsified with an ultrasonic homogenizer at 400 μA for 20 minutes. Thereafter, toluene was removed with heating under reduced pressure, and the resulting mixture was filtered with a 0.8 μm filter, to give a coloring material-containing emulsion in which the dye was contained in the vinyl polymer.
as §1
A. Storage Stability of Ink
A 100 mL bottle made of a fluorocarbon resin was charged with an ink, and the bottle was stored in the air at 60° C. for 3 months. As the physical properties, particle sizes before and after storage (determined by a particle size distribution analyzer commercially available from OtsuKa Denshi K.K. under the trade name of ELS-8000), viscosity (determined at 25° C. by a viscometer commercially available from Toki Sangyo K.K. under the trade name of VISCOMETER ELS-80L) and surface tension (determined at 25° C. by a surface tension meter commercially available from Kyowa Kaimen Kagaku K.K. under the trade name of AUTOMATIC Surface Tensiometer CBVP-Z) were examined. The retention ratio in each physical property was obtained in accordance with the following equation: [formula]

[5] = Water resistance, alkali resistance and acid resistance of dye on plain paper; set-up: key: ◯: Dye not being dissolved; x: Dye being dissolved
Procedure: A. Water Resistance, Alkali Resistance and Acid Resistance
In 10 ml of tetrahydrofuran was dissolved 0.1 g of a dye. A paper sheet for plain paper copy [commercially available from XEROX CO., LTD. under the trade name of XEROX 4024] was immersed in the solution for 10 minutes, and thereafter taken out therefrom to be air-dried at 25° C. for 24 hours. After drying, the paper was immersed in water (water resistance), a 1 N-aqueous sodium bydroxide (alkali resistance), or a 1 N-aqueous hydrochloric acid (acid resistance) for 10 minutes to examine whether or not the dye is dissolved in each solvent. The evaluation was made on the basis of the following evaluation criteria:
◯: Dye not being dissolved

[6] = Solvent solubility of dye; set-up: key: ◯: Dye not being dissolved; x: Dye being dissolved; details: 20° C.
Procedure: Twenty parts by weight of a dye was added to 100 parts by weight of a solvent shown in Table 1, and whether or not the dye is dissolved in the solvent at 20° C. was observed. The evaluation was made on the basis of the following evaluation criteria:
x: Dye not being dissolved

Row | Compound | Ozone Resistance (ΔE) [1] | Water Resistance [OD Residual Ratio (%)] [2] | Light Fastness [OD Residual Ratio (%)] [3] | Retention Ratio of Physical Properties After Storage (%) Particle Size [4] | Retention Ratio of Physical Properties After Storage (%) Surface Tension [4] | Retention Ratio of Physical Properties After Storage (%) Viscosity [4] | Acid Resistance ([5]; dyed plain paper immersed in 1 N aqueous hydrochloric acid for 10 minutes) | Alkali Resistance ([5]; dyed plain paper immersed in 1 N aqueous sodium hydroxide for 10 minutes) | Water Resistance ([5]; dyed plain paper immersed in water for 10 minutes) | Solvent Solubility 2-Butanone ([6]; 20 parts by weight dye in 100 parts by weight 2-butanone) | Solvent Solubility Ethanol ([6]; 20 parts by weight dye in 100 parts by weight ethanol) | Solvent Solubility Tetrahydrofuran ([6]; 20 parts by weight dye in 100 parts by weight tetrahydrofuran) | Solvent Solubility Toluene ([6]; 20 parts by weight dye in 100 parts by weight toluene)
1 | CCCCN(CCCC)C(=O)C1=NN(c2ccc(S(=O)(=O)N(CCCC)CCCC)cc2)C(=O)C1N=Nc1ccc(S(=O)(=O)N(CCCC)CCCC)cc1 (centres unmarked) [Oil-Soluble Dye IB] | 0 | 100% | 98% | 98.4% | 97.3% | 95% |  |  |  |  |  |  | 
2 | C.I. Acid Red 289 [Dye a] | 4 | 84% | 73% |  | 99.7% | 105% |  |  |  |  |  |  | 
3 | C.I. Acid Yellow 23 [Dye b] | 5 | 40% | 87% |  | 96.6% | 96% |  |  |  |  |  |  | 
4 | C.I. Direct Yellow 86 [Dye d] | 10 | 56% | 86% |  | 93.9% | 92% |  |  |  |  |  |  | 
5 | C.I. Direct Yellow 132 [Dye e] | 0 | 35% | 82% |  | 101.2% | 105% |  |  |  |  |  |  | 

Further lines, results first:

Row | Ozone Resistance (ΔE) [1] | Water Resistance [OD Residual Ratio (%)] [2] | Light Fastness [OD Residual Ratio (%)] [3] | Retention Ratio of Physical Properties After Storage (%) Particle Size [4] | Retention Ratio of Physical Properties After Storage (%) Surface Tension [4] | Retention Ratio of Physical Properties After Storage (%) Viscosity [4] | Acid Resistance ([5]; dyed plain paper immersed in 1 N aqueous hydrochloric acid for 10 minutes) | Alkali Resistance ([5]; dyed plain paper immersed in 1 N aqueous sodium hydroxide for 10 minutes) | Water Resistance ([5]; dyed plain paper immersed in water for 10 minutes) | Solvent Solubility 2-Butanone ([6]; 20 parts by weight dye in 100 parts by weight 2-butanone) | Solvent Solubility Ethanol ([6]; 20 parts by weight dye in 100 parts by weight ethanol) | Solvent Solubility Tetrahydrofuran ([6]; 20 parts by weight dye in 100 parts by weight tetrahydrofuran) | Solvent Solubility Toluene ([6]; 20 parts by weight dye in 100 parts by weight toluene) | Compound
6 | 0 | 100% | 100% | 99.4% | 98.5% | 100% |  |  |  |  |  |  |  | CCCCCCN(CCCCCC)S(=O)(=O)c1ccc(N=NC2C(=O)N(c3cc(Cl)c(S(=O)(=O)N(CCCCCC)CCCCCC)cc3Cl)N=C2C)cc1 (centres unmarked) [Oil-Soluble Dye IC]
7 | 0 | 100% | 94% | 101.3% | 97.0% | 96% |  |  |  |  |  |  |  | CCCCN(CCCC)S(=O)(=O)c1cccc(N=Nc2ccc(NC(=O)Nc3ccc(N=Nc4cccc(S(=O)(=O)N(CCCC)CCCC)c4)cc3OC)c(OC)c2)c1 [Oil-Soluble Dye ID]
8 | 3 | 42% | 93% |  | 98.6% | 105% |  |  |  |  |  |  |  | C.I. Acid Yellow 17 [Dye c]
9 | 8 | 100% | 45% | 93% | 97.9% | 91% | ◯ | ◯ | ◯ | ◯ | ◯ | ◯ | ◯ | C.I. Solvent Red 49 [Dye l]
